Source: patent US10308667B2, “Oxadiazolopyridine derivatives for use as ghrelin O-acyl transferase (GOAT) inhibitors” (Boehringer Ingelheim International GmbH, priority 2016, dated 2019)
pIC50: −log10 of the molar value.

Target: human GOAT (Homo sapiens (Human), UniProt Q96T53)
Test: Determination of hGOAT Activity in HEK293 Cells after Incubation with Test Compound
Format: cell-based
Conditions: HEK293 cells stably transfected with preproghrelin and human GOAT; octanoate-BSA 100 μM; acyl-ghrelin in medium by ELISA after 5 hours
How it was run: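 HEK293 cells stably expressing preproghrelin and human GOAT were given serum-free medium with 100 μM octanoate-BSA plus compound (0.3% DMSO) for 5 h. Acyl-ghrelin in the medium was quantified by ELISA (A405, standard curve) as % of vehicle. IC50 was fitted from 8 concentrations.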

human GOAT, sequence (Q96T53 whole entry): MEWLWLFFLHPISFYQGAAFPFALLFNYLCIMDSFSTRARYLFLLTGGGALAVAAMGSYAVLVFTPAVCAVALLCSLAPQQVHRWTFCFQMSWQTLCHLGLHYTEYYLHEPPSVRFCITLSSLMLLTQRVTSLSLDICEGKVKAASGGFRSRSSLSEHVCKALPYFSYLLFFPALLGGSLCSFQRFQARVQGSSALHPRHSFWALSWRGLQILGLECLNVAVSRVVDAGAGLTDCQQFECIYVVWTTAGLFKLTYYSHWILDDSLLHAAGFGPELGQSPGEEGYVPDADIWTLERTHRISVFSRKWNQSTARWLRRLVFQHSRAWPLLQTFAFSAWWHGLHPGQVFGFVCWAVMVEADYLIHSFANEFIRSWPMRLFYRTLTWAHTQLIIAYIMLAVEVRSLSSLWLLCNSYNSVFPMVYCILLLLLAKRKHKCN

Row | SMILES | pIC50
1 | Cc1nc2nonc2c(N)c1Cc1ccc(N2CCOCC2)c(C#N)n1 [Example 152, 6-(7-Amino-5-methyl-[1,2,5]oxadiazolo[3,4-b]pyridin-6-ylmethyl)-3-morpholin-4-yl-pyridine-2-carbonitrile] | 9.22
2 | Cc1nc2nonc2c(N)c1Cc1ncc(Cl)c(C(F)F)n1 [Example 166, 6-[5-chloro-4-(difluoromethyl)pyrimidin-2-yl]methyl-5-methyl-[1,2,5]oxadiazolo[3,4-b]pyridin-7-amine] | 9.42
3 | Cc1nc2nonc2c(N)c1Cc1ccc(OC(F)F)c(N)n1 [Example 119, 6-(6-Amino-5-difluoromethoxy-pyridin-2-ylmethyl)-5-methyl-[1,2,5]oxadiazolo[3,4-b]pyridin-7-ylamine] | 10.04
4 | Cc1nc2nonc2c(N)c1Cc1ccc(Br)c(NCC(C)(C)C(N)=O)n1 [Example 124, 3-[6-(7-Amino-5-methyl-[1,2,5]oxadiazolo[3,4-b]pyridin-6-ylmethyl)-3-bromo-pyridin-2-ylamino]-2,2-di methyl-propionamide] | 10.25
5 | Cc1nc2nonc2c(N)c1Cc1ncc(C(F)(F)F)c(Cl)n1 [Example 50, 6-[4-chloro-5-(trifluoromethyl)pyrimidin-2-yl]methyl-5-methyl-[1,2,5]oxadiazolo[3,4-b]pyridin-7-amine] | 8.60
6 | Cc1nc2nonc2c(N)c1Cc1ccc(-c2cnccn2)c(N)n1 [Example 69, 6-(6-Amino-5-pyrazin-2-yl-pyridin-2-ylmethyl)-5-methyl-[1,2,5]oxadiazolo[3,4-b]pyridin-7-ylamine] | 9.24
7 | Cc1nc2nonc2c(N)c1Cc1ccc(C#N)c(NCC(C)(C)C#N)n1 [Example 146, 6-(7-Amino-5-methyl-[1,2,5]oxadiazolo[3,4-b]pyridin-6-ylmethyl)-2-(2-cyano-2,2-dimethyl-ethylamino)-nicotinonitrile] | 8.96
8 | Cc1cccc(Cc2c(C)nc3nonc3c2N)n1 [Example 53, 5-Methyl-6-(6-methyl-pyridin-2-ylmethyl)-[1,2,5]oxadiazolo[3,4-b]pyridin-7-ylamine] | 8.59
9 | Cc1nc2nonc2c(N)c1Cc1ccc(OCC(F)F)c(C#N)n1 [Example 116, 6-(7-Amino-5-methyl-[1,2,5]oxadiazolo[3,4-b]pyridin-6-ylmethyl)-3-(2,2-difluoro-ethoxy)-pyridine-2-carbonitrile] | 9.08
10 | Cc1nc2nonc2c(N)c1Cc1ccc(C#N)c(F)n1 [Example 72, 6-(7-Amino-5-methyl-[1,2,5]oxadiazolo[3,4-b]pyridin-6-ylmethyl)-2-fluoro-nicotinonitrile] | 8.96
11 | Cc1nc2nonc2c(N)c1Cc1cc(C#N)ccn1 [Example 28, 2-(7-Amino-5-methyl-[1,2,5]oxadiazolo[3,4-b]pyridin-6-ylmethyl)-isonicotinonitrile] | 7.32
12 | Cc1nc2nonc2c(N)c1Cc1ccc(OC(F)F)c(C(N)=O)n1 [Example 90, 6-(7-Amino-5-methyl-[1,2,5]oxadiazolo[3,4-b]pyridin-6-ylmethyl)-3-difluoromethoxy-pyridine-2-carboxylic Acid Amide] | 9.27
13 | Cc1nc2nonc2c(N)c1Cc1ncc(C(F)(F)F)cn1 [Example 35, 5-methyl-6-[5-(trifluoromethyl)pyrimidin-2-yl]methyl-[1,2,5]oxadiazolo[3,4-b]pyridin-7-amine] | 8.74
14 | Cc1nc2nonc2c(N)c1Cc1ccc(Br)c(OC2COC2)n1 [Example 98, 6-[5-Bromo-6-(oxetan-3-yloxy)-pyridin-2-ylmethyl]-5-methyl-[1,2,5]oxadiazolo[3,4-b]pyridin-7-ylamine] | 8.72
15 | Cc1nc2nonc2c(N)c1Cc1ncc(C#N)c(C(C)(F)F)n1 [Example 82, 2-(7-amino-5-methyl-[1,2,5]oxadiazolo[3,4-b]pyridin-6-ylmethyl)-4-(1,1-difluoroethyl)pyrimidine-5-carbonitrile] | 9.00
16 | Cc1nc2nonc2c(N)c1Cc1cccc(-c2c[nH]nc2C(F)(F)F)n1 [Example 62, 5-Methyl-6-[6-(3-trifluoromethyl-1H-pyrazol-4-yl)-pyridin-2-ylmethyl]-[1,2,5]oxadiazolo[3,4-b]pyridin-7-ylamine] | 9.68
17 | Cc1nc2nonc2c(N)c1Cc1ncc(C#N)c(C(F)(F)F)n1 [Example 78, 2-(7-amino-5-methyl-[1,2,5]oxadiazolo[3,4-b]pyridin-6-ylmethyl)-4-(trifluoromethyl)pyrimidine-5-carbonitril] | 9.44
18 | Cc1nc2nonc2c(N)c1Cc1ccc(C#N)c(NCCCF)n1 [Example 149, 6-(7-Amino-5-methyl-[1,2,5]oxadiazolo[3,4-b]pyridin-6-ylmethyl)-2-(3-fluoro-propylamino)-nicotinonitrile] | 10.57
19 | Cc1nc2nonc2c(N)c1Cc1ccc(N2CCC(F)(F)C2)c(C#N)n1 [Example 150, 6-(7-Amino-5-methyl-[1,2,5]oxadiazolo[3,4-b]pyridin-6-ylmethyl)-3-(3,3-difluoro-pyrrolidin-1-yl)-pyridine-2-carbonitrile] | 8.64

Row | SMILES | pIC50
20 | Cc1nc2nonc2c(N)c1Cc1cccc(F)n1 [Example 13, 6-(6-Fluoro-pyridin-2-ylmethyl)-5-methyl-[1,2,5]oxadiazolo[3,4-b]pyridin-7-ylamine] | 8.36
21 | Cc1nc2nonc2c(N)c1Cc1ccc(C#N)c(N2CC3(COC3)C2)n1 [Example 137, 6-(7-Amino-5-methyl-[1,2,5]oxadiazolo[3,4-b]pyridin-6-ylmethyl)-2-(2-oxa-6-aza-spiro[3.3]hept-6-yl)-nicotinonitrile] | 10.27
22 | Cc1nc2nonc2c(N)c1Cc1cc(Cl)cc(C#N)n1 [Example 38, 6-(7-amino-5-methyl-[1,2,5]oxadiazolo[3,4-b]pyridin-6-ylmethyl)-4-chloropyridine-2-carbonitrile] | 8.59
23 | Cc1nc2nonc2c(N)c1Cc1ccc(C(F)(F)F)cn1 [Example 6, 5-Methyl-6-(5-trifluoromethyl-pyridin-2-ylmethyl)-[1,2,5]oxadiazolo[3,4-b]pyridin-7-ylamine] | 9.21
24 | Cc1nc2nonc2c(N)c1Cc1ccc(OC(F)F)cn1 [Example 14, 6-(5-Difluoromethoxy-pyridin-2-ylmethyl)-5-methyl-[1,2,5]oxadiazolo[3,4-b]pyridin-7-ylamine] | 9.17
25 | Cc1nc2nonc2c(N)c1Cc1ccccn1 [Example 58, 5-methyl-6-[(pyridin-2-yl)methyl]-[1,2,5]oxadiazolo[3,4-b]pyridin-7-amine] | 8.55
26 | Cc1nc2nonc2c(N)c1Cc1ncc(C#N)c(C2CCOC2)n1 (centres unmarked) [Example 80, 2-(7-amino-5-methyl-[1,2,5]oxadiazolo[3,4-b]pyridin-6-ylmethyl)-4-(oxolan-3-yl)pyrimidine-5-carbonitrile] | 8.42
27 | Cc1nc2nonc2c(N)c1Cc1cc(Cl)c(C(F)(F)F)cn1 [Example 20, 6-(4-Chloro-5-trifluoromethyl-pyridin-2-ylmethyl)-5-methyl-[1,2,5]oxadiazolo[3,4-b]pyridin-7-ylamine] | 9.77
28 | Cc1nc2nonc2c(N)c1Cc1cc(C#N)c(C(F)(F)F)cn1 [Example 2, 2-(7-Amino-5-methyl-[1,2,5]oxadiazolo[3,4-b]pyridin-6-ylmethyl)-5-trifluoromethyl-isonicotinonitrile] | 8.44
29 | Cc1nc2nonc2c(N)c1Cc1ccc(C#N)c(NCCC(F)(F)F)n1 [Example 145, 6-(7-Amino-5-methyl-[1,2,5]oxadiazolo[3,4-b]pyridin-6-ylmethyl)-2-(3,3,3-trifluoro-propylamino)-nicotinonitrile] | 9.49
30 | Cc1nc2nonc2c(N)c1Cc1ccc(C#N)c(N2CCNC(=O)CC2)n1 [Example 141, 6-(7-Amino-5-methyl-[1,2,5]oxadiazolo[3,4-b]pyridin-6-ylmethyl)-2-(5-oxo-[1,4]diazepan-1-yl)-nicotinonitrile] | 9.85
31 | COc1nc(Cc2c(C)nc3nonc3c2N)ccc1Br [Example 97, 6-(5-Bromo-6-methoxy-pyridin-2-ylmethyl)-5-methyl-[1,2,5]oxadiazolo[3,4-b]pyridin-7-ylamine] | 10.66
32 | Cc1nc2nonc2c(N)c1Cc1ccc(Br)c(C#N)n1 [Example 71, 6-(7-Amino-5-methyl-[1,2,5]oxadiazolo[3,4-b]pyridin-6-ylmethyl)-3-bromopyridine-2-carbonitrile] | 9.66
33 | Cc1nc2nonc2c(N)c1Cc1ccc(OC(F)F)c(=O)[nH]1 [Example 120, 6-(7-Amino-5-methyl-[1,2,5]oxadiazolo[3,4-b]pyridin-6-ylmethyl)-3-difluoromethoxy-1H-pyridin-2-one] | 8.37
34 | Cc1nc2nonc2c(N)c1Cc1ccc(OC2CC2)cn1 [Example 41, 6-[(5-cyclopropoxypyridin-2-yl)methyl]-5-methyl-[1,2,5]oxadiazolo[3,4-b]pyridin-7-amine] | 8.92
35 | Cc1nc2nonc2c(N)c1Cc1ccc(NCC(F)F)c(C#N)n1 [Example 154, 6-(7-Amino-5-methyl-[1,2,5]oxadiazolo[3,4-b]pyridin-6-ylmethyl)-3-(2,2-difluoro-ethylamino)-pyridine-2-carbonitrile] | 9.77
36 | Cc1nc2nonc2c(N)c1Cc1ccc(Br)c(OCC2(C)COC2)n1 [Example 95, 6-[5-Bromo-6-(3-methyl-oxetan-3-ylmethoxy)-pyridin-2-ylmethyl]-5-methyl-[1,2,5]oxadiazolo[3,4-b]pyridin-7-ylamine] | 10.09
37 | Cc1nc2nonc2c(N)c1Cc1ccc(Br)c(=O)[nH]1 [Example 163, 6-(7-Amino-5-methyl-[1,2,5]oxadiazolo[3,4-b]pyridin-6-ylmethyl)-3-bromo-1H-pyridin-2-one] | 8.60
38 | Cc1nc2nonc2c(N)c1Cc1ccc(Oc2ccnn2C)c(C#N)n1 [Example 117, 6-(7-Amino-5-methyl-[1,2,5]oxadiazolo[3,4-b]pyridin-6-ylmethyl)-3-(2-methyl-2H-pyrazol-3-yloxy)-pyridine-2-carbonitrile] | 9.72
